For one series, the target named is TEAD central pocket. Details: method as in PMID 26592798. To be noted: read-out: ITC Kd; cited from earlier work.
Series [1] deals with T1, hTEAD4 (nonacylated) (Homo sapiens, UniProt Q15561).
T1 construct: N-terminal His6-tagged hTEAD4^217–434 was subcloned; made in house; host or cells: Escherichia coli BL21-CodonPlus (DE3)-RIPL
Briefly: Thiol conjugation assay (CPM probe). The class given is binding. To be noted: for Inhibition of the CPM fluorescence signal increase: assay validation with known central pocket binders; for fold reduction of TEAD binding in the thiol conjugation assay: relative to 19. As for the experimental part: To serially diluted solutions of the tested compounds in 5 μL of assay buffer [HEPES (25 mM) and NaCl (150 mM) pH 6.5], freshly prepared 5 μL of 0.45 μM protein solution was added and incubated at room temperature for 10 min, followed by addition of 5 μL of 0.45 μM CPM solution, giving a 15 μL final assay volume, 150 nM protein, and 150 nM CPM. The assay plate was shaken at room temperature for 1 h before measuring the fluorescence (Ex/Em: 380/470 nm). Compound 19 was used as an internal standard to determine 100% inhibition.
A library of 14,000 compounds was screened in 1536-well plates using pH 6.5 MES buffer. To the preincubated solution of nonacylated hTEAD4 (0.15 μM final concentration) and compound solution (12.5 μM final concentration), CPM (0.15 μM final concentration) was added, and the assay plates were incubated at room temperature for 50 min before measuring the fluorescence (Ex/Em: 360/465 nm) using Spectramax Paradigm (Molecular Devices). Z′ = 0.6–0.8 (10-plates).

For series [2], the target named is T1, hTEAD4 (nonacylated). The series is described as follows: FP-based competitive binding assay with FITC-palmitate tracer. To be noted: relative to 19; for fold increase in the IC50 values: said of the IC50 values of both assays. As for the experimental part: To serially diluted solution of the tested compounds in 5 μL assay buffer [HEPES (25 mM) and NaCl (150 mM), pH 6.5 buffer], freshly prepared 5 μL of 0.15 μM protein solution was added and incubated at room temperature for 10 min followed by 5 μL of 30 nM FITC-palmitate solution, giving 15 μL final assay volume, 50 nM protein, and 10 nM tracer. The assay plate was shaken at room temperature for 1 h before measuring the FP (Ex/Em: 485/535 nm).

In series [3] the target is T1, hTEAD4 (nonacylated). The series is described as follows: Differential scanning fluorimetry. The format is binding. The following applies: 20 μM protein, 80 μM inhibitor. As for the experimental part: Nonacylated hTEAD4 (20 μM) was incubated in the absence or presence of inhibitors (80 μM) at 25 °C for 10 min. Then, SYPRO orange (Sigma-Aldrich) at a final concentration of 5× was added and the mixture was heated at a ramp rate of 1 °C/min in a qPCR machine (Applied Biosystems). The derivative of the SYPRO orange fluorescent intensity is plotted as a function of temperature.

The target of another series is T2, mTEAD4 (nonacylated) (Mus musculus, UniProt Q62296).
T2 construct: made in house
The series is described as follows: 1H–15N HSQC NMR. The class given is binding. To be noted: 0.5 mM compound, versus DMSO. On the procedure: The ^13C/^15N-labeled mTEAD4 was prepared following a protocol established earlier,[45] and the protein was deacylated as described above for hTEAD4. ^1H–^15N HSQC spectra in the presence of DMSO or the test compound (0.5 mM) were collected at 37 °C on a Bruker 600 MHz magnet equipped with a cryoprobe in 20 mM HEPES, pH 7.3 buffer containing 150 mM NaCl and 1 mM DTT. The spectra were processed and overlaid.

For series [4], the target named is T3, hTEAD4 (nonacylated) with human YAP50–100 (Homo sapiens, UniProt Q15561).
T3 construct: N-terminal His6-tagged hTEAD4^217–434 was subcloned; made in house; host or cells: Escherichia coli BL21-CodonPlus (DE3)-RIPL (TEAD4); solid-phase synthesis (YAP peptide)
Briefly: FP-based competitive TEAD–YAP interaction assay (FITC-hYAP50–100). The class given is binding. The following applies: versus 19. On the procedure: All the TEAD–YAP binding experiments were performed in phosphate-buffered saline (PBS) (pH 7.5).
To serially diluted solution of the tested compounds in 5 μL of PBS, freshly prepared 5 μL of protein solution was added and incubated at room temperature for 10 min followed by addition of 5 μL of FAM-YAP^50–100 solution. The assay plate was shaken at room temperature for 1 h before measuring the FP (Ex/Em: 485/535 nm). Final protein and FAM concentrations are as follows (FAM/protein): hTEAD4 (nonacylated): 2 nM/5 nM, hTEAD4 (acylated): 3 nM/15 nM, mTEAD4_Cys360Ser: 10 nM/50 nM, and mTEAD4_Cys360Ala: 10 nM/50 nM.

In series [5] the target is T1, hTEAD4 (nonacylated). The series is described as follows: Whole-protein ESI–MS of covalent modification. The format is binding. The following applies: 8 equiv of compound, 1 h, rt. As for the experimental part:
The protein solution (1 μL 5 μM) was injected to UPLC-MS (ThermoScientific_UltiMate 3000 LC coupled to a Velos Pro MS) through a desalting column (MassPREP Online desalting, 2.1 × 10 mm). For reactions, 1 μM of the protein was incubated at room temperature for 1 h with 8 equiv of the compound in HEPES (25 mM) and NaCl (150 mM) pH 6.5 buffer. Then, the mixture was centrifuged before injecting 5 μL. The deconvolution of m/z values was performed using Promass Xcalibur software.

The nature of series [6]: Assay media stability (HPLC). The class given is physicochemical. To be noted: MES buffer, pH 6.5, 1 h, rt. As for the experimental part:
The compounds were incubated in MES (25 mM), pH 6.5 buffer or HEPES (25 mM) and NaCl (150 mM) pH 6.5 buffer for an hour at room temperature before injecting into a reverse-phase HPLC system (ThermoScientific_Ultimate 3000) equipped with a C18 column (2/50 Nucleodur C18 gravity 1.8 μm von Macherey-Nagel).

The subject of another series is TEAD target gene ANKRD1. Briefly: RT-qPCR of TEAD target gene expression in HEK293 cells. The format is cell-based. The following applies: 6 h. As for the experimental part: HEK293 cells were treated with DMSO or the indicated compound for the indicated duration. RNA was extracted using the RNeasy Plus Mini Kit (QIAGEN, Hilden, Germany) following the manufacturer’s procedure. DNA was removed on the column by DNase digestion with the RNase-free DNase Set (QIAGEN, Hilden, Germany) according to the manufacturer’s instructions. Following the manufacturer’s protocol, cDNA templates were synthesized from 700 ng total RNA using the QuantiTect Reverse Transcription Kit (QIAGEN, Hilden, Germany).
The expression levels of the TEAD target gene ANKRD1 was assessed by real-time quantitative PCR. A total of 100 ng of cDNA was amplified using 500 nM gene-specific primers and SsoAdvanced Universal SYBR Green Supermix (Bio-Rad Laboratories, Feldkirchen, Germany) in a total volume of 10 μL for 50 cycles. All measurements were performed in both technical and biological triplicates using a CFX96 Touch Real-Time PCR Detection System (Bio-Rad Laboratories, Feldkirchen, Germany).
The sequences of primers for ANKRD1 were forward 5′-[…]-3′ and reverse 5′-[…]-3′. The sequences of primers for GAPDH were forward 5′-[…]-3′ and reverse 5′-[…]-3′.
For orientation: Real-time PCR tracks product formation cycle by cycle.

Series [7] concerns the target T1, hTEAD4 (nonacylated). Briefly: Saturation binding of FITC-palmitate (FP). The following applies: 10 nM tracer. As for the experimental part:
To a serially diluted solution of nonacylated hTEAD4 in 12 μL of assay buffer [HEPES (25 mM) and NaCl (150 mM) pH 6.5], 8 μL of 25 nM FITC-palmitate solution was added, giving 20 μL final assay volume with a 10 nM tracer. The assay plate was incubated at room temperature for 1 h before measuring FP (Ex/Em: 485/535 nM).

Details of series [8]: method as in PMID 21164073. The following applies: acidic 2-OH group; cited from earlier work.

T1 sequence (Q15561 217-434): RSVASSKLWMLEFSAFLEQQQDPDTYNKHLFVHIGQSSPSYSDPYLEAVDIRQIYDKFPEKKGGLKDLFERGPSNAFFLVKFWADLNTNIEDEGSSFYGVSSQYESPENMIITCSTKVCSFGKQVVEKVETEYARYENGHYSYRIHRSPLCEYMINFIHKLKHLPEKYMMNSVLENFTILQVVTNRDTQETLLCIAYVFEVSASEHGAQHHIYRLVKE
T3 sequence (Q15561 217-434): as above
T2 sequence (Q62296 210-427 limits assumed): as the sequence (Q15561 217-434) above, with V3I, Q19R, G35S, A48T, D67E, E91D, S96A, S142L counted along it

As usually defined, the Kd is the free concentration of one partner at which half of the binding sites on the other are occupied at equilibrium, for simple one-to-one binding. For `O=C(O)c1ccccc1Nc1cccc(C(F)(F)F)c1` [Compound 1, flufenamic acid, reference compound], on TEAD central pocket, the Kd was 73 µM. For the same molecule, the “Inhibition of the CPM fluorescence signal increase” value at hTEAD4 (nonacylated) [1] is on record as “inhibited the signal increase in a dose-dependent manner”. Take `O=C(O)c1cccnc1Nc1cccc(C(F)(F)F)c1` [Compound 2, niflumic acid, reference compound]: at TEAD central pocket, the Kd is 28 µM. The “Inhibition of the CPM fluorescence signal increase” value at hTEAD4 (nonacylated) [1] is listed as “inhibited the signal increase in a dose-dependent manner”. `O=C(CCl)c1ccccc1Nc1cccc(C(F)(F)F)c1` [Compound 3, reference compound]: the “Inhibition of the CPM fluorescence signal increase” value on hTEAD4 (nonacylated) [1] is reported as “inhibited the signal increase in a dose-dependent manner”. Turning to `O=c1cc(CO)oc(C(Nc2ncccn2)c2ccccc2)c1O` (stereo not shown) [Compound 26, 3-Hydroxy-6-(hydroxymethyl)-2-(phenyl(pyrimidin-2-ylamino)methyl)-4H-pyran-4-one], the “fold increase in the IC50 values” at hTEAD4 (nonacylated) [2] is recorded as “more than 20 fold”. Take `O=c1cc(CO)oc(C(Nc2nccs2)c2ccccc2)c1O` (stereo not shown) [Compound 27, 3-Hydroxy-6-(hydroxymethyl)-2-(phenyl(thiazol-2-ylamino)methyl)-4H-pyran-4-one]: at hTEAD4 (nonacylated) [2], the “fold increase in the IC50 values” is “more than 20 fold”. Moreover, on hTEAD4 (nonacylated) [3], the Tm shift result is “did not induce any change”.

Take `O=c1cc(CO)oc(C(Nc2nc3ccccc3[nH]2)c2ccccc2)c1O` (stereo not shown) [Compound 28, 2-(((1H-Benzo[d]imidazol-2-yl)amino)(phenyl)methyl)-3-hydroxy-6-(hydroxymethyl)-4H-pyran-4-one]: the “fold increase in the IC50 values” at hTEAD4 (nonacylated) [2] is listed as “more than 20 fold”.

As for `O=c1cc(CO)oc(C(Nc2ccccc2)C2CCCCC2)c1O` (stereo not shown) [Compound 30, 2-(Cyclohexyl(phenylamino)methyl)-3-hydroxy-6-(hydroxymethyl)-4H-pyran-4-one], the “fold reduction of TEAD binding in the thiol conjugation assay” value (shortened to “fold reduction of TEAD binding”) at hTEAD4 (nonacylated) [1] was found to be 100 fold. `CC(C)C(Nc1ccccc1)c1oc(CO)cc(=O)c1O` (stereo not shown) [Compound 31, 3-Hydroxy-6-(hydroxymethyl)-2-(2-methyl-1-(phenylamino)propyl)-4H-pyran-4-one]: the “fold reduction of TEAD binding” value at hTEAD4 (nonacylated) [1] is on record as 100 fold. Turning to `O=c1cc(CO)oc(CNc2ccccc2)c1O` [Compound 32, 3-Hydroxy-6-(hydroxymethyl)-2-((phenylamino)methyl)-4H-pyran-4-one], the “fold reduction of TEAD binding” value at hTEAD4 (nonacylated) [1] amounted to 100 fold. Take `O=c1cc(CO)oc(C(Nc2ccccc2)c2ccccn2)c1O` (stereo not shown) [Compound 40, 3-Hydroxy-6-(hydroxymethyl)-2-((phenylamino)(pyridin-2-yl)methyl)-4H-pyran-4-one]: the “fold lowering of inhibitory activity in the FP assay” value on hTEAD4 (nonacylated) [2] is 2–3 fold.

On to `O=c1cc(CO)oc(C(Nc2ccccn2)c2ccc(Br)cc2)c1O` (stereo not shown) [Compound 42, 2-((4-Bromophenyl)(pyridin-2-ylamino)methyl)-3-hydroxy-6-(hydroxymethyl)-4H-pyran-4-one], for which, at hTEAD4 (nonacylated) [3] (read-out: Tm shift), the ΔTm at 80 µM was -2 °C. For `COc1c(C(Nc2ccccc2)c2ccccc2)oc(CO)cc1=O` (stereo not shown) [Compound 45, 6-(Hydroxymethyl)-3-methoxy-2-(phenyl(phenylamino)methyl)-4H-pyran-4-one], the “effect on 1H–15N HSQC spectrum” value on mTEAD4 (nonacylated) was “did not induce a significant change”. On hTEAD4 (nonacylated) [3], the Tm shift result was “did not induce any change”. For the same molecule, in series [4], the “fold lower activity in TEAD–YAP interaction assay” value is reported as over 100 fold. In addition, the “modification of the protein (whole-protein ESI–MS)” value at hTEAD4 (nonacylated) [5] was “modification of TEAD was not observed”. Besides, the “stability in assay medium” value in [6] is reported as “stable”. Also, in the series on TEAD target gene ANKRD1, the “reduction of the mRNA level of ANKRD1 compared to the DMSO control” value is listed as “only a minimal effect”. Also, the “activity in the thiol conjugation assay” value on hTEAD4 (nonacylated) [1] is “inactive”.

Turning to `COc1c(C(Nc2ccccn2)c2ccccc2F)oc(CO)cc1=O` (stereo not shown) [Compound 46, 2-((2-Fluorophenyl)(pyridin-2-ylamino)methyl)-6-(hydroxymethyl)-3-methoxy-4H-pyran-4-one], the “activity in the thiol conjugation assay” value on hTEAD4 (nonacylated) [1] is “inactive”. Turning to `CCCCCCCCCCCCCCCC(=O)NCCCOCCOCCOCCCNC(=S)Nc1ccc(-c2c3ccc(=O)cc-3oc3cc(O)ccc23)c(C(=O)O)c1` [Compound S4, 2-(6-Hydroxy-3-oxoi-3H-xanthen-9-yl)-5-(3-(15-oxo-4,7,10-trioxa-14-azatriacontyl)thioureido)benzoic Acid], binding at hTEAD4 (nonacylated) [7] was put at a Kd of 0.028 µM. The term pKa denotes the negative logarithm of the acid dissociation constant. For the molecule `O=c1cc(CO)occ1O` [kojic acid], the pKa in [8] was 7.9. Turning to `CCCCCCCCCCCCCCCC(=O)O` [palmitic acid, reference compound], the “Inhibition of the CPM fluorescence signal increase” value at hTEAD4 (nonacylated) [1] is recorded as “inhibited the signal increase in a dose-dependent manner”.

(Values after paper PMC7586386, “Discovery of Covalent Inhibitors Targeting the Transcriptional Enhanced Associate Domain Central Pocket” (Journal of Medicinal Chemistry, 2020).)
